Among the test systems are A498 renal; CCRF-CEM leukemia; HCC-2998 colon; HS 578T breast; KM12 colon; LOX IMVI melanoma; MALME-3M melanoma; MCF7 breast; MDA-MB-231 breast; MDA-MB-435; NCI-H522 lung; OVCAR-5 ovarian; RPMI-8226 leukemia; SF-268 CNS; T-47D breast; U251 CNS; UO-31 renal; COLO 205 colon; OVCAR-4 ovarian; SK-MEL-5 melanoma.
Experiment in all cases: NCI tumour cell line growth inhibition, 48 h

Here are results for four molecules from PubChem BioAssay (NCI).

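How tested: cells in 96-well plates exposed to compound for 48 hours at five concentrations. TGI: concentration producing complete growth inhibition.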

For `CCOC(=O)Cc1cnc(NC(NC(=O)CC)(C(F)(F)F)C(F)(F)F)s1`, the TGI in the experiment on A498 renal, in the experiment with CCRF-CEM leukemia, in the experiment with HCC-2998 colon, in the experiment with HS 578T breast, in the experiment with KM12 colon and in the experiment on LOX IMVI melanoma was over 100 µM in each case. Further, the TGI in the experiment with MALME-3M melanoma, with MCF7 breast, with MDA-MB-231 breast, in the experiment on MDA-MB-435, in the experiment on NCI-H522 lung and with OVCAR-5 ovarian was over 100 µM each time. The TGI in the experiment with RPMI-8226 leukemia, in the experiment on SF-268 CNS, in the experiment with T-47D breast, with U251 CNS and in the experiment on UO-31 renal was over 100 µM throughout.
As for `Cc1nc2[nH]ncn2c(=O)c1CCO`, the TGI with A498 renal, with CCRF-CEM leukemia, with COLO 205 colon, in the experiment on HCC-2998 colon, in the experiment with HS 578T breast and in the experiment with LOX IMVI melanoma was over 10 µM throughout. For the same molecule, the TGI with MALME-3M melanoma, in the experiment on MCF7 breast, in the experiment with MDA-MB-231 breast, with MDA-MB-435, with NCI-H522 lung and in the experiment on OVCAR-4 ovarian was over 10 µM in each case. Besides, the TGI in the experiment on OVCAR-5 ovarian, in the experiment with RPMI-8226 leukemia, in the experiment on SF-268 CNS, in the experiment with SK-MEL-5 melanoma, with T-47D breast and with U251 CNS was over 10 µM each time. In the experiment with UO-31 renal, this molecule yielded a TGI of over 10 µM.
`COc1cc(C2c3cc4c(cc3[C@@H](Oc3ccc(F)cc3)C3COC(=O)[C@H]23)OCO4)cc(OC)c1O` (stereo not given in full): the TGI in the experiment on CCRF-CEM leukemia is over 23.2 µM; in the experiment on COLO 205 colon, 4.86 µM; in the experiment on HCC-2998 colon it was over 100 µM; with KM12 colon, 27.9 µM; with LOX IMVI melanoma, over 100 µM; in the experiment on MALME-3M melanoma, 31.8 µM. In addition, the TGI in the experiment with MCF7 breast was over 58 µM; in the experiment on NCI-H522 lung, over 100 µM; in the experiment on OVCAR-4 ovarian it was over 100 µM; with OVCAR-5 ovarian, over 100 µM; in the experiment on RPMI-8226 leukemia it was 6.64 µM; with SF-268 CNS, over 100 µM. For the same molecule, the TGI in the experiment with SK-MEL-5 melanoma is 10.9 µM; in the experiment on U251 CNS, over 100 µM; in the experiment with UO-31 renal, over 100 µM.
In the case of `COc1ccc2c3c([nH]c2c1)CCN(Cc1ccccc1)C3`, the TGI in the experiment with A498 renal was 46.5 µM; with CCRF-CEM leukemia, over 100 µM; with COLO 205 colon, 38.5 µM; in the experiment with HCC-2998 colon, 34.1 µM; with HS 578T breast, 56.9 µM; in the experiment on KM12 colon, 70.5 µM. Also, the TGI was 38 µM in the experiment on LOX IMVI melanoma; 34.6 µM in the experiment on MALME-3M melanoma; 33.8 µM in the experiment with MCF7 breast; 66.4 µM with MDA-MB-231 breast; 60.6 µM in the experiment with MDA-MB-435; over 100 µM in the experiment with OVCAR-4 ovarian. Moreover, the TGI in the experiment on OVCAR-5 ovarian was 69 µM; with RPMI-8226 leukemia, 64.6 µM; with SF-268 CNS it was over 100 µM; with SK-MEL-5 melanoma, 32.6 µM; with T-47D breast, 69.1 µM; in the experiment on U251 CNS, 53.4 µM. The molecule further displayed a TGI in the experiment on UO-31 renal of 39.6 µM.
